Consider one substance from patent US5908828A, “Synthetic peptide derivatives and the salts thereof” (Hoechst Japan Limited, priority 1994, dated 1999).

The test has as its system ALPase activity in MC3T3-E1 cells promoted by rh-BMP-2. In words: Assay of BMP inhibiting activity (BMP-2 antagonist-like activity): ALPase activity in cultured MC3T3-E1 cells. Format: cell-based, mouse. The conditions noted are these: for ALPase activity: MC3T3-E1 cells, 2 days. As to the method:
BMP-2 antagonist-like activity of the present synthetic peptide derivatives was assayed by way of cultured MC3T3-E1 cells which were established from mouse calvaria having osteoblast-like property, by Kodama et al. (Kodama, H. et al. (1981) Jpn. J Oral. Biol., vol.23, p.899). The cultured MC3T3-E1 cells were prepared according to Takuwa et al. (Takuwa, Y. et al., (1991) Biochem.
Biophys. Res. Comuni., vol. […] ALPase is often used as an indicator enzyme for differentiation and maturity of osteoblasts and chondrocytes (Pfeilschifter, J., et al., Endocrinology (1987), vol. 121, p212-218; Rodan, G. A., et al., calcium regulating hormones and bone metabolism, Elsevir Science Publishers B.V., (1992), p 183-196).

Bridge positions count the residues as written; N and C are the ends. Ends that are not written are not given here. I, II: the chains in the order shown.

For “synthetic peptide derivative: Fragment P1 (SEQ ID NO:1, N-terminal acetyl-Cys) joined to Fragment P2 (SEQ ID NO:2) through a 4-(N-maleimidomethyl)cyclohexane-1-carbonyl linker (chain 1 {CH2CO}-CDFSDVGWNDWIVAPPGY; chain 2 AIVQTLVNSVNSKIPKA; thioether I:N-II:N via 4‑(N-maleimidomethyl)cyclohexane‑1‑carbonyl; not fully specified (N-terminus, C-terminus, bridges))”, the “inhibition of rh-BMP-2-promoted ALPase activity in MC3T3-E1 cells” value (2×10^-9 to 2×10^-6 M, result in words) is recorded as “inhibited ALPase activity in MC3T3-E1 cells which were promoted by rh-BMP-2 with 2×10^-9 to 2×10^-6 M dose dependently”. In addition, the ALPase activity by setting is: (rh-BMP-2 5 ng/ml + synthetic peptide derivative 2 × 10^-7 M, n = 4) 302 ± 54 pmol/min; (rh-BMP-2 5 ng/ml + synthetic peptide derivative 2 × 10^-8 M, n = 4) 486 ± 36 pmol/min; (rh-BMP-2 5 ng/ml + synthetic peptide derivative 2 × 10^-9 M, n = 4) 632 ± 71 pmol/min; (rh-BMP-2 5 ng/ml + synthetic peptide derivative 2 × 10^-10 M, n = 4) 876 ± 120 pmol/min; (rh-BMP-2 (b ng/ml) + synthetic peptide derivative 2 × 10^-6 M, n = 1) 269 pmol/min.
